Activity calls are given as the source filed them.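 The calls were made as follows: active = fitted curve reaches 40% activation at a concentration no higher than the top valid tested dose; inconclusive = flat fit between 30% and 70% activation, or poor fit; inactive = uptake decrease, flat fit within 30% of zero, the rest.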
Target: Scavenger receptor class B member 1 (Mus musculus) (UniProt Q61009)
Assay: enhancers of DiI-HDL lipid transfer via SR-BI – cell-based, ldlA[mSR-BI] CHO, DiI fluorescence, cherry-pick, dose response (AID 602191);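 also: cell fluorescence from internalized DiI-labeled HDL after washing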;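 as to AC40: potency of activators raising HDL uptake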;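 as to Activation (HDL uptake increase): 0% = median of DMSO wells and 100% = twice the DMSO signal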
Conditions: ldlA[mSR-BI] CHO cells, 3 h, at 35 µM (top of the series)

Scavenger receptor class B member 1 (Mus musculus), sequence (Q61009 whole entry, looked up): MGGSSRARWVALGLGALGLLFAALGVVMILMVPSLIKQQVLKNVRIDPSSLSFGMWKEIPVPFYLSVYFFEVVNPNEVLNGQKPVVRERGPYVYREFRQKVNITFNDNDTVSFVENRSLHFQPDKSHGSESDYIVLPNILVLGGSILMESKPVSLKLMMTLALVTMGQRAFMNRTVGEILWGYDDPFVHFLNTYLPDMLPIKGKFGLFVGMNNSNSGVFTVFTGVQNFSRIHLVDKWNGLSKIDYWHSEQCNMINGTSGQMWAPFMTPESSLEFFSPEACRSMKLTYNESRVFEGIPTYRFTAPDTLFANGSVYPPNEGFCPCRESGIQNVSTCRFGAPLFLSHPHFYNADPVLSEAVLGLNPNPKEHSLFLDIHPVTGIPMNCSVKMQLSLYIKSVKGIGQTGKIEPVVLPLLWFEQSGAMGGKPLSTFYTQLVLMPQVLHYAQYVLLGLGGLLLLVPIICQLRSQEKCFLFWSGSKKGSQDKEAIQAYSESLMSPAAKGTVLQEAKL

Activation (HDL uptake increase), inactive:
CCCn1c(N)c(N(CCOC)C(=O)c2ccc(S(=O)(=O)N3CCOCC3)cc2)c(=O)[nH]c1=O -4.96%, CCOc1ccc(N(C(=O)c2ccc3c(c2)OCO3)C2C=CS(=O)(=O)C2)cc1 (stereo not given) -7.61%, COc1ccc(S(=O)(=O)N2CCOCC2)cc1NC(=O)COC(=O)C1CC2CCCC(C1)C2=O (stereo not given) -6.79%, COc1cc(-n2c(C)nc3cc(C(=O)NCC4CCCO4)ccc32)cc(OC)c1OC (stereo not given) -12.1%, CCOc1ccc(S(=O)(=O)NCCc2cn3ccccc3n2)cc1 2.16%, CC(C)CC(CO)N1CCN(C(=O)c2cccc(C(F)(F)F)c2)CCC1=O (stereo not given) -7.8%, CC(=O)N1C2CCCCC2S[C@H]2CCCCC21 (stereo not given in full) -4.16%, COC(=O)CNC(=O)C12CC3CC(C1)CC(c1ccc(C)cc1)(C3)C2 -4.62%, CC1CCCC(NC(=O)COC(=O)c2ccc3ccccc3n2)C1C (stereo not given) -7.88%, COc1ccc2c(c1OC)C(=O)OC2CC(=O)O (stereo not given) 3.81%, Cc1ccc(C(C(=O)NC2CCCC2)N(Cc2ccc(F)cc2)C(=O)c2csnn2)o1 (stereo not given) 6.32%, NNC(=O)CNC(c1ccccc1)c1cc(Br)ccc1NC(=O)CCN1CCOCC1 (stereo not given) -9.57%, COc1ccc(NC(=O)CN(C)C(=O)C2(c3ccccc3)CCCC2)cc1 -15.3%, CNC[C@H]1Oc2c(NS(=O)(=O)c3ccc(OC)cc3)cccc2C(=O)N([C@H](C)CO)C[C@H]1C 9.97%, Cc1cccc(C)c1OCc1cc(C(=O)N2CCC(c3ccccc3)CC2)no1 2.24%, Cc1nc(CCNC(=O)Cc2ccc(Cl)cc2)cs1 -4.62%, COc1ccc(OC)c(NC(=O)c2c(NC(=O)CCC(=O)O)sc3c2CCCCC3)c1 -20.2%, CC(C)=C1C2CCC1C(C(=O)NCCc1ccccc1)C2C(=O)O (stereo not given) -7.43%, O=C(CN1CCN(S(=O)(=O)c2ccc(F)cc2)CC1)Nc1ccc(F)cc1F 5.31%, N#C/C(=C/c1cn(-c2ccccc2)nc1-c1cccc(OCc2ccccc2)c1)C(=O)NCCCn1ccnc1 12.2%, O=C1CCN(S(=O)(=O)c2ccccc2)CCN1CCOCc1cccc(F)c1 7.83%, C=CCn1c(C(CCC(C)C)CC(C)(C)O)n[nH]c1=S (stereo not given) 7.72%, CN(C(=O)COC(=O)c1cccc(S(=O)(=O)N2CCOCC2)c1)C1CCS(=O)(=O)C1 (stereo not given) 5.01%, O=C1CCC(=O)N1c1ccc(S(=O)(=O)Nc2cccc(Br)c2)cc1 -7.52%, CCc1ccc2[nH]c(=O)c(CN(CCN(C)C)C(=O)Nc3ccccc3OC)cc2c1 -2.31%, Cc1cccc(C)c1NC(=O)N1C2CCCC1CC(NC(=O)C(C)(C)C)C2 (stereo not given) 5.39%, CC(C)CN(C(=O)CCNC(=O)c1ccccc1Cl)C1CCS(=O)(=O)C1 (stereo not given) 0.946%, O=C(COC(=O)COc1ccccc1)NCCC1=CCCCC1 2.72%

Same assay, conditions: ldlA[mSR-BI] CHO cells, DiI-HDL uptake fluorescence, 3 h

AC40, inactive:
O=C(Cc1ccc(NC(=O)C2CCN(C(=O)C3CC3)CC2)cc1)Nc1ccc(C(=O)N2CCOCC2)cc1 > 35 µM, Cc1c(CCOC(=O)C23CC4(C)CC(C)(CC(C)(C4)C2)C3)sc[n+]1CC(=O)c1ccccc1 > 35 µM

— PubChem BioAssay AID602191 (Broad Institute, 2012)
